According to ChEMBL document CHEMBL1141196, “Grafting aminocyclopentane carboxylic acids onto the RGD tripeptide sequence generates low nanomolar alphaVbeta3/alphaVbeta5 integrin dual binders” (J Med Chem, 2005):
pIC50: −log10 of the molar value.

Assays:
Integrin alpha-V/beta-3 = Integrin alpha-V/beta-3 (Homo sapiens, UniProt P05106+P06756); assay: Displacement of [125I]-echistatin from alphavbeta3 integrin receptor; assay type: protein-complex assay
Integrin alpha-V/beta-5 = Integrin alpha-V/beta-5 (Homo sapiens, UniProt P06756+P18084); assay: Displacement of [125I]-echistatin from alpha-v-beta-5 integrin receptor; assay type: protein-complex assay
Chain of Integrin alpha-V/beta-5 (P06756 31-889 limits assumed): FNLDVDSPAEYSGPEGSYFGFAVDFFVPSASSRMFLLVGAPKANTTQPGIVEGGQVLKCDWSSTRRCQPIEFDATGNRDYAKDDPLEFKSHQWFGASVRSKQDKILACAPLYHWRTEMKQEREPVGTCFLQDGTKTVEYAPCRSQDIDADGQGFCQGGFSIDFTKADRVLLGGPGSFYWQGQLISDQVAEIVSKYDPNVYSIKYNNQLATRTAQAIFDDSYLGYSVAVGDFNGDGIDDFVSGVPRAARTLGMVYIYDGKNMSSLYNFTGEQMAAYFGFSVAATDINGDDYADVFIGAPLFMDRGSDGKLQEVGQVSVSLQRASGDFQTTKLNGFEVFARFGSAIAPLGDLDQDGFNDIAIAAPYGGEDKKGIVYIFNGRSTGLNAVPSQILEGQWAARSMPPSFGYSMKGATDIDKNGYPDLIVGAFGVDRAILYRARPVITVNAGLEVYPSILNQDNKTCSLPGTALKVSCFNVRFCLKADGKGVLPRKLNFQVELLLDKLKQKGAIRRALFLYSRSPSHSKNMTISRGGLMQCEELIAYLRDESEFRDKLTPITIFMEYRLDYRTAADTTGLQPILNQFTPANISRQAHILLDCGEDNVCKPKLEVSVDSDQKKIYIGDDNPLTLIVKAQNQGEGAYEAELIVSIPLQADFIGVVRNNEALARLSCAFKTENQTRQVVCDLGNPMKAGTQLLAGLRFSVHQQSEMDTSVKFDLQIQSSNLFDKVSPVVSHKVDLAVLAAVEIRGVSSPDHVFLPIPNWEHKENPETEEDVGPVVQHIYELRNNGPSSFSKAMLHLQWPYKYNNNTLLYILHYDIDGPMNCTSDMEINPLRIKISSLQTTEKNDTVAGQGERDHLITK
Chain of Integrin alpha-V/beta-5 (P06756 891-1048 limits assumed): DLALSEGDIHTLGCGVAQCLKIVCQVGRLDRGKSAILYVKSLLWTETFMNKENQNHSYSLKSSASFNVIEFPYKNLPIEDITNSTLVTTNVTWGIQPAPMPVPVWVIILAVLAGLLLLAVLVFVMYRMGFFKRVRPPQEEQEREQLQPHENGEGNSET
Chain of Integrin alpha-V/beta-5 (P18084 24-799 limits assumed): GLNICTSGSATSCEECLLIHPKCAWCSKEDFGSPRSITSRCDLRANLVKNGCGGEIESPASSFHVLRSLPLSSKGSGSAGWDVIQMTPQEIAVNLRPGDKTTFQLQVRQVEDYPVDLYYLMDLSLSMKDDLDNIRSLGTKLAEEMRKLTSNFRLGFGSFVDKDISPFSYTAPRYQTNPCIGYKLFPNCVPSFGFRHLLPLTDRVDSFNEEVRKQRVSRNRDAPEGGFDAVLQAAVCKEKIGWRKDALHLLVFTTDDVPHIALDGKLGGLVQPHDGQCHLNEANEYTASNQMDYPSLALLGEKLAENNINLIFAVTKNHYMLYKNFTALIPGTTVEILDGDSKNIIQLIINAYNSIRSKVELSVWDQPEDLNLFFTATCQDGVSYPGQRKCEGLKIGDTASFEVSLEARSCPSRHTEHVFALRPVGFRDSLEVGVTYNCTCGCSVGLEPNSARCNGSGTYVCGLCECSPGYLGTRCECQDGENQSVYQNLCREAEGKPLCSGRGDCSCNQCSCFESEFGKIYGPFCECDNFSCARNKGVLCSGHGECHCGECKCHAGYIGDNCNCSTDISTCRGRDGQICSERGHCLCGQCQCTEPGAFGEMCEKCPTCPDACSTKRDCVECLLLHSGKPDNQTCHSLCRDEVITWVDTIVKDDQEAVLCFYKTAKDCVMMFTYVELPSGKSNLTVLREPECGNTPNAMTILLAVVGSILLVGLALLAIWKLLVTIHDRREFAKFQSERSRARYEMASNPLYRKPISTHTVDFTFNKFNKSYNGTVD

Chain of Integrin alpha-V/beta-3 (P05106 27-788 limits assumed): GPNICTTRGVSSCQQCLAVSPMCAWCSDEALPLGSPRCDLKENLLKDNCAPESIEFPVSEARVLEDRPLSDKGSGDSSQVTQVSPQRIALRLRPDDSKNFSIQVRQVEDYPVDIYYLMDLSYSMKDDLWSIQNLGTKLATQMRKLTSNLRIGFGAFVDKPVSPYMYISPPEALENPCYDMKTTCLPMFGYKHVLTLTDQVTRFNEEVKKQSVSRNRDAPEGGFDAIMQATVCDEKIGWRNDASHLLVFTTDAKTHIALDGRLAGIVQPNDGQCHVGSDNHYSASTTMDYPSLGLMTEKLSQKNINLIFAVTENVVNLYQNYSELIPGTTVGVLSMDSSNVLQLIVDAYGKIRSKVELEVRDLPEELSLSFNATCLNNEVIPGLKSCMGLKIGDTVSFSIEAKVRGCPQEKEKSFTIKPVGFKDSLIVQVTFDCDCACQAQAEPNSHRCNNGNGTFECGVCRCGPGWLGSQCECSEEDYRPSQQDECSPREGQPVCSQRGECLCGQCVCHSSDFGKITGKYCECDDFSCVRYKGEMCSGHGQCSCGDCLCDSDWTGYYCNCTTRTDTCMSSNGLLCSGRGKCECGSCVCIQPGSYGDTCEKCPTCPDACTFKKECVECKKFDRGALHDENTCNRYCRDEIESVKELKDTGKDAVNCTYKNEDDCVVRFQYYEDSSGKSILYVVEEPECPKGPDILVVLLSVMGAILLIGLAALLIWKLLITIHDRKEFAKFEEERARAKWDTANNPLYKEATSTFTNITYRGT
Chain of Integrin alpha-V/beta-3 (P06756 31-889 limits assumed): as the sequence (P06756 31-889 limits assumed) above
Chain of Integrin alpha-V/beta-3 (P06756 891-1048 limits assumed): as the sequence (P06756 891-1048 limits assumed) above

Row | Structure (SMILES) | pIC50 (Integrin alpha-V/beta-3) | pIC50 (Integrin alpha-V/beta-5)
1 | N=C(N)NCCC[C@@H]1NC(=O)[C@H]2CC[C@@H](C2)NC(=O)[C@H](CC(=O)O)NC(=O)CNC1=O | 8.00 | 7.59
2 | N=C(N)NCCC[C@@H]1NC(=O)[C@@H]2CC[C@H](C2)NC(=O)[C@H](CC(=O)O)NC(=O)CNC1=O | 8.82 | 9.23
3 | NC(N)=NCCC[C@@H]1NC(=O)[C@H]2CC[C@@H]3CCC[C@H](NC(=O)[C@H](CC(=O)O)NC(=O)CNC1=O)C(=O)N32 | 8.85 | 8.94
4 | N=C(N)NCCC[C@@H]1NC(=O)[C@H]2CC[C@H](C2)NC(=O)[C@H](CC(=O)O)NC(=O)CNC1=O | 8.34 | 8.46
5 | N=C(N)NCCC[C@@H]1NC(=O)[C@@H]2CC[C@@H](C2)NC(=O)[C@H](CC(=O)O)NC(=O)CNC1=O | 8.11 | 8.18

Next, values leading:

Row | pIC50 (Integrin alpha-V/beta-3) | pIC50 (Integrin alpha-V/beta-5) | Structure (SMILES)
6 | 6.15 | 5.89 | N=C(N)NCCC[C@@H]1NC(=O)[C@H]2C[C@@H](NC(=O)[C@H](CC(=O)O)NC(=O)CNC1=O)[C@H](O)[C@@H]2O
7 | 7.29 | 6.78 | N=C(N)NCCC[C@@H]1NC(=O)[C@@H]2C[C@H](NC(=O)[C@H](CC(=O)O)NC(=O)CNC1=O)[C@@H](O)[C@H]2O
8 | 7.45 | 7.53 | N=C(N)NCCC[C@@H]1NC(=O)[C@H]2C[C@H](NC(=O)[C@H](CC(=O)O)NC(=O)CNC1=O)[C@@H](O)C2
9 | 8.14 | 7.88 | N=C(N)NCCC[C@@H]1NC(=O)[C@@H]2C[C@@H](O)[C@@H](C2)NC(=O)[C@H](CC(=O)O)NC(=O)CNC1=O
10 | 8.25 | 8.34 | N=C(N)NCCC[C@@H]1NC(=O)[C@@H]2C[C@H](NC(=O)[C@H](CC(=O)O)NC(=O)CNC1=O)[C@@H](O)C2
11 | 6.88 | 6.39 | N=C(N)NCCC[C@@H]1NC(=O)[C@H]2C[C@@H](NC(=O)[C@H](CC(=O)O)NC(=O)CNC1=O)[C@H](O)[C@H]2O
12 | 7.35 | 6.90 | N=C(N)NCCC[C@@H]1NC(=O)[C@@H]2C[C@H](NC(=O)[C@H](CC(=O)O)NC(=O)CNC1=O)[C@@H](O)[C@@H]2O
